Data on ten compounds can be found in BindingDB's records for patent US20250320228 (Merck Patent, 2025).

A value given as a limit tells only on which side of the number the result lay.

For the assay, the target named is Mitogen-activated protein kinase kinase kinase kinase 1 (Homo sapiens, UniProt Q92918). Put plainly: HPK1 Kinase Assay. How it is done: A recombinant fusion protein consisting of full-length human HPK1 (MAP4K1) with an N-terminal Glutatione S-transferase (GST) tag was produced in insect cells Sf21 using the baculovirus expression system. GST-HPK1 protein was purified from cell lysates by glutathione Sepharose affinity chromatography. The assay is run in three continuous steps: 1) the HPK1 enzymatic kinase reaction, 2) an ATP depletion, and 3) the ADP detection, the steps 2 and 3 are performed with ADP-Glo™ Kinase Assay kit from Promega (V9101). Test compounds were prepared by 10-point serial dilution in dimethyl sulfoxide (DMSO) and 100 nL of each dilution was spotted onto a 384-well Optiplate (Perkin Elmer and Cat #6007299) by Labcyte Echo. 5 μL kinase reaction buffer (0.02% Brij-35, 2 mM DTT, 50 mM HEPES pH 7.5, MgCl2 10 mM, BSA 0.01% and β-glycerophosphate 12.5 mM) containing HPK1 (3.2 nM) enzyme was transferred to each well and incubated for 15 minutes at room temperature at 60% humidity. The enzymatic reaction was started by adding 5 μl of Start-Mix (10 μM ATP and 3.235 μM MBP). After 120 minutes, the reaction was stopped by adding 5 μL of ADP-Glo reagent (Promega, V9101) and incubating for 40 min. in the dark at 23° C. To determine the level of ADP, 10 μl ADP-Glo Detection solution was added and incubated for 1 hour at 23° C. in the dark. The plate was transferred to a Perkin Elmer EnVision (2104 Multilabel Reader) for luminescence detection and percent inhibition activity and IC50 value were determined using Genedata Screener.
Mitogen-activated protein kinase kinase kinase kinase 1, sequence (Q92918 whole entry, the tested form may be a part): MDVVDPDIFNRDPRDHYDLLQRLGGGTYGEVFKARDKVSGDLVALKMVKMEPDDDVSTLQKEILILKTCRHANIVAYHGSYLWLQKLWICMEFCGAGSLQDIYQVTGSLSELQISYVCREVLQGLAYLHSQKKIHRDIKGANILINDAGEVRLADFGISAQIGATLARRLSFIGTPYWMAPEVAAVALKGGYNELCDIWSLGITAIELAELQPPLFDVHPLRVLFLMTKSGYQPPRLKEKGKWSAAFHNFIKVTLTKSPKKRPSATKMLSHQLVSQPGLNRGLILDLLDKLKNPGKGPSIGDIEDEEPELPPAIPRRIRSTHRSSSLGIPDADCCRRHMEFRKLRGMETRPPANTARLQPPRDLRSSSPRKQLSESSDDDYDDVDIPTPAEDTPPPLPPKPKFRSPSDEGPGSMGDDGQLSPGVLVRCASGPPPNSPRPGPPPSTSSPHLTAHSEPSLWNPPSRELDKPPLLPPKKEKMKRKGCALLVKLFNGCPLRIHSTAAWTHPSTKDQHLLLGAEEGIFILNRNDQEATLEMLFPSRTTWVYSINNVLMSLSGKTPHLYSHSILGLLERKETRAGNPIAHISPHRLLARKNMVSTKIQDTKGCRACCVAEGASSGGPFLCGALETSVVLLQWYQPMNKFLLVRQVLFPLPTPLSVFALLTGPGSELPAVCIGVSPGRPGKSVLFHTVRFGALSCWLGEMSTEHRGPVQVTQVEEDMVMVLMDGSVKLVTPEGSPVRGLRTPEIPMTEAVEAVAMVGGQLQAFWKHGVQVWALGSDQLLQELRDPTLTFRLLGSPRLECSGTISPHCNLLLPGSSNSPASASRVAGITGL
On to `NC(=O)c1cc(-c2ccc(CN3CCOC[C@H]3C(F)(F)F)cc2)nc2c(N[C@H]3CCCNC3)ncnc12` [US20250320228, Example 15], for which the IC50 (commonly the midpoint of a concentration-inhibition curve) was under 0.1 µM.
The compound `NC(=O)c1cc(-c2ccc(CN3CCOCC3)cc2)nc2c(N3CC[C@@H](F)[C@H](N)C3)ncnc12` [US20250320228, Example 22] registered an IC50 of over 1 µM.
The compound `NC(=O)c1cc(-c2ccc(CN3CCOCC3)cc2)nc2c(NC34CNCC3C4)ncnc12` (stereo not given) [US20250320228, Example 20] showed an IC50 of under 0.1 µM.
Turning to `C[C@@H](N)CNc1ncnc2c(C(N)=O)cc(-c3ccc(CN4CCOCC4)cc3)nc12` [US20250320228, Example 25], the IC50 was under 0.1 µM.
Compound `NC(=O)c1cc(-c2cc(F)c(OCC3(O)CCC3)c(F)c2)nc2c(N[C@H]3CCCNC3)ncnc12` [US20250320228, Example 39] registered an IC50 of under 0.1 µM.
With `N#C[C@H]1COCCN1Cc1ccc(-c2cc(C(N)=O)c3ncnc(N[C@H]4CCCNC4)c3n2)cc1` [US20250320228, Example 14], the IC50 is under 0.1 µM.
Compound `NC(=O)c1cc(-c2ccc(CN3CCOCC3)cc2)nc2c(N[C@@H]3CNC[C@H](F)C3)ncnc12` [US20250320228, Example 26] yielded an IC50 of under 0.1 µM.
Take `COCc1n[nH]c(-c2cc(C(N)=O)c3ncnc(N[C@H]4CCCNC4)c3n2)n1` [US20250320228, Example 13]: the half-maximal inhibitory concentration (IC50) is over 1 µM.
The result for `NC(=O)c1cc(-c2ccc(OC(F)(F)F)cc2)nc2c(N[C@@H]3CNC[C@H](F)C3)ncnc12` [US20250320228, Example 71] reads under 0.1 µM.
For the compound `CN1CCc2cc(-c3cc(C(N)=O)c4ncnc(N[C@H]5CCCNC5)c4n3)nn2CC1=O` [US20250320228, Example 45], the half-maximal inhibitory concentration (IC50) was under 0.1 µM.
